Source: ChEMBL document CHEMBL3792304 (Eur J Med Chem, 2016)

Tests used:
[1] = Cytotoxicity against human Huh7ET cells expressing LucUbiNeo fusion protein measured after 4 hrs at 37 degC by MTT assay; assay type: cell-based, Huh-7
Hepatitis C virus [2] = experiment: Antiviral activity against Hepatitis C virus genotype 1b infected in human Huh7ET cells expressing LucUbiNeo fusion protein measured after 2 days by luciferase Bright-Glo assay; assay type: functional, organism-based, Hepacivirus hominis; details: Huh-7, 48 h
Hepatitis C virus [3] = experiment: Antiviral activity against HCV subtype 1b by replicon assay; assay type: functional, organism-based, Hepacivirus hominis; details: genotype 1b
[4] = Selectivity index, ratio of CC50 for human Huh7ET cells expressing LucUbiNeo fusion protein to EC50 for Hepatitis C virus genotype 1b infected in human […] cells; assay type: toxicity, cell-based; details: read-out: Ratio CC50/EC50

Question: What does the source list for `Cn1c(=O)c(-c2c(F)cccc2C(F)(F)F)cc2c(N)nc(Nc3ccccc3)nc21`?
Answer: CC50 at 4 h [1]: 6.3 µM; EC50 (Hepatitis C virus [2]): 2.8 µM

Question: Which CC50 at 4 h [1] does the source give for `CCCOCCNc1nc(Oc2ccccc2)nc2[nH]c(=O)c(-c3ccc(F)cc3)cc12` here?
Answer: 79.8 µM

Question: And the EC50 (Hepatitis C virus [2])?
Answer: 3.3 µM

Question: With `CCCOCCOc1nc(N)nc2c1cc(-c1c(Cl)cccc1Cl)c(=O)n2C` as the compound, how does the CC50 at 4 h [1] read?
Answer: 50.1 µM

Question: What about the EC50 (Hepatitis C virus [2]) of the same compound?
Answer: 10.4 µM

Question: With `Nc1nc(Nc2ccccc2)nc2[nH]c(=O)c(-c3c(F)cccc3F)cc12` as the compound, how does the CC50 at 4 h [1] read?
Answer: 2.4 µM

Question: And the EC50 (Hepatitis C virus [2])?
Answer: 17.5 µM

Question: For `COc1ccc(Nc2nc3[nH]c(=O)c(-c4ccc(F)cc4)cc3c(=O)[nH]2)cc1`, which CC50 at 4 h [1] is on record?
Answer: 46 µM

Question: And the EC50 (Hepatitis C virus [2])?
Answer: 9.4 µM

Question: With `Cn1c(=O)c(-c2ccccc2)cc2c(N)nc(Nc3ccccc3)nc21` as the compound, how does the CC50 at 4 h [1] read?
Answer: 23.5 µM

Question: And the EC50 (Hepatitis C virus [2])?
Answer: 0.9 µM

Question: What does the source list for `O=C1Nc2nc(Nc3ccccc3)nc(On3nnc4ccccc43)c2CC1c1ccc(Cl)cc1Cl` (configuration not stated)?
Answer: CC50 at 4 h [1]: 5.5 µM; EC50 (Hepatitis C virus [2]): 1.35 µM

Question: What does the source list for `CCCOCCNc1nc(Nc2ccccc2)nc2c1cc(-c1c(Cl)cccc1Cl)c(=O)n2C`?
Answer: CC50 at 4 h [1]: 84.7 µM; EC50 (Hepatitis C virus [2]): 5.1 µM

Question: What does the source list for `CCCOCCNc1nc(N)nc2[nH]c(=O)c(-c3ccc(F)cc3)cc12`?
Answer: CC50 at 4 h [1]: 130 µM; EC50 (Hepatitis C virus [2]): 2.1 µM

Question: For `COCCOc1nc(N)nc2c1CC(c1c(Cl)cccc1Cl)C(=O)N2` (configuration not stated), which CC50 at 4 h [1] is on record?
Answer: 65 µM

Question: And the EC50 (Hepatitis C virus [2])?
Answer: 22 µM

Question: Which results are given for `Cn1c(=O)c(-c2c(F)cccc2F)cc2c(N)nc(Nc3ccccc3)nc21`?
Answer: CC50 at 4 h [1]: 10.4 µM; EC50 (Hepatitis C virus [2]): 0.16 µM

Question: With `CCCCCNc1nc(N)nc2[nH]c(=O)c(-c3c(Cl)cccc3Cl)cc12` as the compound, how does the CC50 at 4 h [1] read?
Answer: 11 µM

Question: And the EC50 (Hepatitis C virus [2])?
Answer: 3.2 µM

Question: For `Nc1nc(Nc2ccccc2)nc2c1cc(-c1c(Cl)cccc1Cl)c(=O)n2CCO`, which CC50 at 4 h [1] is on record?
Answer: 29.3 µM

Question: What about the EC50 (Hepatitis C virus [2]) of the same compound?
Answer: 2.3 µM

Question: Which results are given for `Cn1c(=O)c(-c2c(Cl)cccc2Cl)cc2cnc(Nc3ccccc3)nc21`?
Answer: CC50 at 4 h [1]: 0.9 µM; EC50 (Hepatitis C virus [2]): 0.23 µM

Question: For `Cn1c(=O)c(-c2c(Br)cccc2Br)cc2c(N)nc(Nc3ccccc3)nc21`, which CC50 at 4 h [1] is on record?
Answer: 0.8 µM

Question: What about the EC50 (Hepatitis C virus [2]) of the same compound?
Answer: 0.3 µM

Question: Which CC50 at 4 h [1] does the source give for `CCCn1c(=O)c(-c2c(Cl)cccc2Cl)cc2c(N)nc(Nc3ccccc3)nc21` here?
Answer: 181 µM

Question: What about the EC50 (Hepatitis C virus [2]) of the same compound?
Answer: 1.4 µM

Question: What does the source list for `CCCOCCNc1nc(Nc2ccccc2)nc2c1CC(c1c(Cl)cccc1Cl)C(=O)N2` (configuration not stated)?
Answer: CC50 at 4 h [1]: 50.5 µM; EC50 (Hepatitis C virus [2]): 12.4 µM

Question: Which results are given for `Nc1nc(Nc2ccccc2)nc2[nH]c(=O)c(-c3ccccc3)cc12`?
Answer: CC50 at 4 h [1]: 13.8 µM; EC50 (Hepatitis C virus [2]): 0.49 µM

Question: With `CC(C)OC(=O)[C@H](C)NP(=O)(OC[C@H]1O[C@@H](n2ccc(=O)[nH]c2=O)[C@](C)(F)[C@@H]1O)Oc1ccccc1` (some centres not stated) as the compound, how does the EC50 (Hepatitis C virus [3]) read?
Answer: 0.048 µM

Question: For `COCCn1c(=O)c(-c2c(Cl)cccc2Cl)cc2c(N)nc(Nc3ccccc3)nc21`, which CC50 at 4 h [1] is on record?
Answer: 241 µM

Question: And the EC50 (Hepatitis C virus [2])?
Answer: 0.99 µM

Question: With `CCCOCCNc1nc(N)nc2c1cc(-c1ccc(F)cc1)c(=O)n2C` as the compound, how does the CC50 at 4 h [1] read?
Answer: 54.3 µM

Question: And the EC50 (Hepatitis C virus [2])?
Answer: 4.7 µM

Question: Which results are given for `O=C1Nc2nc(Nc3ccccc3)[nH]c(=O)c2CC1c1c(F)cccc1F` (configuration not stated)?
Answer: selectivity ratio [4]: 196; CC50 at 4 h [1]: 5.3 µM; EC50 (Hepatitis C virus [2]): 0.027 µM

Question: With `CCCCCNc1nc(N)nc2c1cc(-c1ccc(F)cc1)c(=O)n2C` as the compound, how does the CC50 at 4 h [1] read?
Answer: 79.8 µM

Question: And the EC50 (Hepatitis C virus [2])?
Answer: 20.9 µM

Question: With `O=C1Nc2nc(Nc3ccccc3)nc(On3nnc4ccccc43)c2CC1c1ccc(F)cc1` (configuration not stated) as the compound, how does the CC50 at 4 h [1] read?
Answer: 12.2 µM

Question: What about the EC50 (Hepatitis C virus [2]) of the same compound?
Answer: 1.28 µM

Question: With `CCn1c(=O)c(-c2c(Cl)cccc2Cl)cc2c(N)nc(Nc3ccccc3)nc21` as the compound, how does the EC50 (Hepatitis C virus [2]) read?
Answer: 6.3 µM

Question: What does the source list for `O=c1[nH]c2nc(Nc3ccccc3)[nH]c(=O)c2cc1-c1ccc(F)cc1`?
Answer: selectivity ratio [4]: 397; CC50 at 4 h [1]: 13.5 µM; EC50 (Hepatitis C virus [2]): 0.034 µM

Question: What does the source list for `O=C1Nc2nc(Oc3ccccc3)nc(On3nnc4ccccc43)c2CC1c1ccc(F)cc1` (configuration not stated)?
Answer: CC50 at 4 h [1]: 62.7 µM; EC50 (Hepatitis C virus [2]): 18.6 µM

Question: Which results are given for `Cn1c(=O)c(-c2ccc(F)cc2)cc2c(N3CCCC3)nc(N)nc21`?
Answer: CC50 at 4 h [1]: 111 µM; EC50 (Hepatitis C virus [2]): 10.5 µM

Question: Which CC50 at 4 h [1] does the source give for `Cn1c(=O)c(-c2c(Cl)cccc2Cl)cc2c(N)nc(N)nc21` here?
Answer: 120 µM

Question: And the EC50 (Hepatitis C virus [2])?
Answer: 16.7 µM

Question: Which CC50 at 4 h [1] does the source give for `CC(C)Cn1c(=O)c(-c2c(Cl)cccc2Cl)cc2c(N)nc(Nc3ccccc3)nc21` here?
Answer: 185 µM

Question: And the EC50 (Hepatitis C virus [2])?
Answer: 0.22 µM

Question: For `Nc1nc(Nc2ccccc2)nc2[nH]c(=O)c(-c3c(Br)cccc3Br)cc12`, which CC50 at 4 h [1] is on record?
Answer: 166 µM

Question: What about the EC50 (Hepatitis C virus [2]) of the same compound?
Answer: 7.7 µM

Question: What does the source list for `O=C1Nc2nc(NCc3ccccc3)[nH]c(=O)c2CC1c1c(Cl)cccc1Cl` (configuration not stated)?
Answer: CC50 at 4 h [1]: 69 µM; EC50 (Hepatitis C virus [2]): 9.6 µM

Question: With `CCCCn1c(=O)c(-c2c(Cl)cccc2Cl)cc2c(N)nc(Nc3ccccc3)nc21` as the compound, how does the EC50 (Hepatitis C virus [2]) read?
Answer: 11.9 µM

Question: Which CC50 at 4 h [1] does the source give for `CSc1nc2c(c(=O)[nH]1)CC(Cc1ccccc1)C(=O)N2` (configuration not stated) here?
Answer: 38.3 µM

Question: What about the EC50 (Hepatitis C virus [2]) of the same compound?
Answer: 11.2 µM
